{"source": "patent US7795305B2", "about": "“CDDO-compounds and combination therapies thereof” (Board of Regents, The University of Texas System, priority 2000, dated 2010)", "key": {"U937 cells [1]": {"test_system": "U937 cells", "experiment": "Active caspase detection with Phi-Phi-Lux", "type": "cell-based, human", "settings": "1 μM, 6 hours", "experimental": "Detection of active caspases. The cell-permeable fluorogenic substrate Phi-Phi-Lux-G1D2 was administered to monitor caspase activity according to the manufacturer's recommendations (OncoImmunin, Inc, Kensington, Md.). Briefly, 10^6 cells were resuspended in 5 μL of substrate solution and incubated for 1 hour at 37° C. in the dark. After incubation, cells were washed, and the fluorescence emission was determined using the FL-1 channel of a Becton Dickinson FACScan flow cytometer.\nCDDO-Me. […] Effects of CDDO-Me on the cleavage of caspase-3 were analyzed utilizing the fluorogenic substrate of caspase-3 Phi-Phi-Lux."}, "Bcl-2 phosphorylation": {"test_system": "Bcl-2 phosphorylation", "experiment": "Bcl-2 phosphorylation, 32P metabolic labeling", "type": "cell-based", "settings": "0.1 μM", "experimental": "Metabolic labeling, immunoprecipitation, and immunoblot analysis. Cells were labeled with [^32P]orthophosphoric acid and then treated with 0.1 μM CDDO-Me or CDDO, after which Bcl-2 was analyzed by immunoprecipitation, as previously described Samples were electrophoresed in a 12% acrylamide/0.1% SDS gel, transferred to nitrocellulose, and exposed to Hyperfilm (Amersham Pharmacia Biotech, UK) at −80° C. The same blot was used for western blot analysis with anti-Bcl-2 antisera.\nThe effect of CDDO-Me on Bcl-2 phosphorylation was further investigated by performing metabolic labeling studies with ^32P-orthophosphoric acid. […] To further investigate mechanisms of inhibition of Bcl-2 phosphorylation that could may a role in CDDO-Me-induced cell death, the inventors selected U937 cells that were stably transfected with a serine 70→alanine, Bcl-2 mutant (S70A)."}, "D9 cells, vector control": {"test_system": "D9 cells, vector control", "experiment": "Annexin V / cell number in D9 vector control cells", "type": "cell-based", "experimental": "Annexin V staining. Cells were washed in phosphate-buffered saline (PBS) and resuspended in 100 μl of binding buffer containing Annexin V (Roche Diagnostic Corporation, Indianapolis, Ind.). Cells were analyzed by flow cytometry after the addition of propidium iodide (PI). Annexin V binds to those cells that express phosphatidylserine on the outer layer of the cell membrane, and PI stains the cellular DNA of those cells with a compromised cell membrane. This allows for live cells (unstained with either fluorochrome) to be discriminated from apoptotic cells (stained only with annexin V) and necrotic cells (stained with both annexin and PI).\nTo characterize the correlation between PPARγ and caspase activation, caspase-3 levels in D9 cells transfected with wt-PPARγ were analyzed. Six different single cell-derived clones were treated with 3 μM CDDO or vehicle controls for 5 hrs. Caspase-3 cleavage was analyzed by Western blot. A decrease in pro-caspase-3 with appearance of the cleaved product was readily observed in all clones. The degree of cleavage was higher in PPARγ-transfected than in vector control cells that express endogenous PPARγ. […] These changes correlated with plasma membrane changes: vector control=47.0% annexin V-positive cells; wt-PPARγ-transfected cells=73.3±1.1% annexin V (+), n=6. […] PPARγ-transfected cells were also more sensitive to PPARγ-ligand 15d-PGJ2 (41.00% vs 16.0% annexin (+) cells at 3 μM).\nTo characterize the correlation between PPARγ and caspase activation, caspase-3 levels in D9 cells transfected with wt-PPARγ were analyzed. Six different single cell-derived clones were treated with 3 μM CDDO or vehicle controls for 5 hrs. Caspase-3 cleavage was analyzed by Western blot. A decrease in pro-caspase-3 with appearance of the cleaved product was readily observed in all clones. The degree of cleavage was higher in PPARγ-transfected than in vector control cells that express endogenous PPARγ. […] These changes correlated with plasma membrane changes: vector control=47.0% annexin V-positive cells; wt-PPARγ-transfected cells=73.3±1.1% annexin V (+), n=6. […]"}, "U937 cells [2]": {"test_system": "U937 cells", "experiment": "Cell cycle kinetics, proliferating (S+G2M) fraction by flow cytometry", "type": "cell-based, human", "experimental": "Cell kinetic and DNA fragmentation studies. The cell cycle kinetics was determined by staining cells with acridine orange for cellular DNA and RNA content followed by flow cytometeric analysis as described. Samples were measured in a FACScan flow cytometer (Becton Dickinson, San Jose, Calif.) using the 488-nm line of a […] argon laser and filter settings for green (530 nm) (DNA) and red (585 nm) (RNA) fluorescence. Ten thousand events were stored in list mode for analysis. The percentage of cells in the “sub G1 peak” defined the proportion of apoptotic cells in the tested populations. […] Cell-cycle kinetics was analyzed using ModFit software (Verity Software House, Inc., Topsham, Me.).\nCDDO. The effect of CDDO on the survival of HL-60 and U937 leukemia cell lines is depicted in FIG. 1. A time- and dose-dependent decrease of HL-60 cells: at 48 hours, 10^−8 M, at 72 and 96 hours, 10^−9 M of CDDO reduced cell numbers by 50%. Viability of U937 cells was inhibited at 107 to 1018 at 48 hours. DNA fragmentation was measured to confirm that the cell death induced by CDDO was due to apoptosis on a sub G1 cell population by DNA/RNA flow cytometry (FIG. 2). The percentage of proliferating cells were analyzed by FCM."}}, "data": [{"compound": "COC(=O)[C@]12CCC(C)(C)C[C@H]1[C@H]1C(=O)C=C3[C@@]4(C)C=C(C#N)C(=O)C(C)(C)[C@@H]4CC[C@@]3(C)[C@]1(C)CC2", "note": "[CDDO-Me]", "values": [{"measurement": "Phi-Phi-Lux positive/PI negative cells", "setting": "U937 cells [1]", "result": 67, "unit": "%"}, {"measurement": "Bcl-2 phosphorylation", "setting": "Bcl-2 phosphorylation", "result": "virtually abrogated"}]}, {"compound": "CC1(C)CCC2(C(=O)O)CCC3(C)C(C(=O)C=C4C5(C)C=C(C#N)C(=O)C(C)(C)C5CCC43C)C2C1", "note": "(stereo not drawn) [CDDO, 2-cyano-3,12-dioxoolen-1,9-dien-28-oic acid]", "values": [{"measurement": "annexin V-positive cells", "setting": "D9 cells, vector control; 3 μM (CDDO: 5 hrs)", "result": 47.0, "unit": "%"}, {"measurement": "cell number", "setting": "D9 cells, vector control; 3 μM CDDO", "result": "did not change"}, {"measurement": "proliferating (S+G2M) fraction", "setting": "U937 cells [2]; 10^−6 M", "result": 5.6, "unit": "%"}, {"measurement": "proliferating (S+G2M) fraction", "setting": "U937 cells [2]; 10^−7 M (DMSO-controls 23.3%)", "result": 14.9, "unit": "%"}]}]}
